Test results reported in patent US12702694B2, “Methods for identification, assessment, prevention, and treatment of metabolic disorders using SLIT2” (Dana-Farber Cancer Institute, Inc., priority 2015, dated 2026).

Assays:
Slit2 = Slit2 mRNA in adipose tissue after daily CL 316,243 injections; assay type: in vivo, Mus musculus; settings: 3 days treatment, daily injections 1 mg/kg; did not reach statistical significance; FIG. 2F
Protocol: (§1) RNA was extracted from cultured cells or frozen tissue samples using TRIzol®, purified with QIAGEN RNeasy® minicolumns. Normalized RNA was reversed transcribed using a high-capacity cDNA reverse transcription lot (Applied Biosystems) and cDNA was analyzed by qRT-CPR. Relative mRNA levels were calculated using the comparative CT method and normalized to cyclophilin miRNA. All primers used are listed with their sequences in Table 3 as follows: […]

PKA signaling pathway [1] = assay: Western blotting of PKA and related signaling in primary inguinal cells; assay type: cell-based, Mus musculus; settings: H89 30 μM, 2 h, primary inguinal cells; FIG. 10C
Protocol: (§2) Inguinal and brown stromal-vascular fractions were obtained from 6 weeks old male or newborn mice (postnatal days 5-10) for white and brown fat cultures, respectively. Inguinal fat tissue was dissected and washed with PBS, minced and digested for 45 min at 37° C. in PBS containing 10 mM CaCl2), 2.4 U/ml dispase II (Roche) and 10 mg/ml collagenase D (Roche). Brown fat tissue was dissected, washed with PBS, minced and digested for 45 min at 37° C. in PBS containing 1.3 mM CaCl2, 123 mM NaCl, 5 mM KCl, 5.0 mM glucose, 100 mM HEPES, 4% BSA and 1.5 mg/ml collagenase B (Roche). Digested tissue was filtered through a 100-μm cell strainer and centrifuged at 600 g for 10 min. Pelleted inguinal stromal-vascular cells were grown to confluence and induced to differentiate by an adipogenic cocktail containing 0.02 μM insulin, 1 μM rosiglitazone, 5 μM dexamethasone, 0.5 μM isobuthylmethylxanthine. For differentiation of brown fat cells, 1 nM T3 and 125 μM indomethacin were also added to the adipogenic cocktail. Two days after induction, cells were maintained in adipocyte culture medium containing 0.02 μM insulin and 1 μM rosiglitazone. Where indicated, cells were treated with forskolin (10 μM), norepinephrine (100 nM) for 4 h or with recombinant proteins (1 μg/ml, R&D systems) for 24 h or for the indicated times. For adenoviral overexpression of Slit2-FL, Slit2-N, Slit2-C, LacZ or Cre, virus was added at day 2 of differentiation at a titer of 10^8 particles/well and cells were analyzed at day 6-7. Where indicated, cells were treated with the drugs Erlotinib (SelleckChem), Lapatinib (Santa Cruz), PD0325901 (Santa Cruz), Propranolol (SelleckChem), H89 dihydrochloride (Santa Cruz), SQ-22536 (Santa Cruz) for indicated time points and concentrations.
For Western blotting, homogenized tissues, whole cell lysates, or concentrated serum free conditioned medium were lysed in RIPA buffer containing protease inhibitor cocktail (Thermo Scientific) and phosphatase inhibitor cocktail (Thermo Scientific), separated by SDS-PAGE and transferred to Immobilon-P® membranes (Millipore). For Western blotting of plasma samples, 1 μl of plasma was prepared containing 2× sample buffer (Invitrogen) with reducing agent, boiled and analyzed using Western blot against V5, FLAG, or the indicated antibody. V5-antibody was from Life Technologies and anti-Flag M2-HRP (A8592) from Sigma Aldrich. Anti-Slit2 antibody used was from Abcam (Abcam ab134166). Phospho-PKA Substrate, phospho-PKC Substrate, phospho-ERK1/2, total ERK, phospho-AKT, total AKT, phospho-AMPK, total AMPK, phospho-ATGL, ATGL, phospho-EGFR and EGFR were from Cell Signaling. Protein array was from R&D Systems (Proteome Profiler Mouse Phospho-RTK Array Kit, ARY014). Silverstain (SilverQuest™ Silver Staining Kit, LC6070) was purchased from Thermo Fisher.

primary inguinal cells = assay: Thermogenic gene expression in Slit2-C transduced primary inguinal cells co-treated with inhibitors; assay type: cell-based, Mus musculus
Protocol: as §2, with “Where indicated, cells were treated with the drugs Erlotinib (SelleckChem), Lapatinib (Santa Cruz), PD0325901 (Santa Cruz), Propranolol (SelleckChem), H89 dihydrochloride (Santa Cruz), SQ-22536 (Santa Cruz) for indicated time points and concentrations.” left out
as §1, with “[…].” for “miRNA. All primers used are listed with their sequences in Table 3 as follows:”

PKA signaling pathway [2] = assay: Western blotting of PKA and related signaling in primary inguinal cells; assay type: cell-based, Mus musculus; settings: 20 nM NE; FIG. 10M
brown fat = settings: humans; Cypess et al. (2015); cited from earlier work
[3] = tested on: cell surface of primary inguinal adipocytes; assay: Cell surface binding by confocal laser scanning microscopy; set-up: species or system Mus musculus; settings: purified FLAG-tagged protein, live adipocytes incubated at 4° C.; FIGS. 10L, 11E
Protocol: Live, primary differentiated adipocytes were incubated with recombinant Slit2-C FLAG-tagged protein for 1 h at 4° C. before fixation and staining with a fluorescent antibody for visualization of cell-surface bound proteins using a confocal laser scanning microscope.
Experiments were performed using a Nikon Ti w/A1R confocal inverted microscope equipped with a Nikon Plan Apo 60x/NA 1.4 oil immersion objective lens using excitation wavelengths of 405 and 561 nm. All experiments were performed under confocal imaging conditions (pinhole <1 airy unit) and images taken with the same laser settings. Image analysis was performed using the Nikon Elements acquisition software. Primary inguinal cells differentiated until day 5 was gently trypsinized and seeded onto poly-D-lysine-coated coverslips (Corning Biocoat 12 mm German Glass coverslips, #08-774-385) in a 6-well plate at a density of 10,000 cells per well in growth medium. On the next day, cell surface binding was performed by adding 1 μg/ml purified protein to cells or FLAG peptide in PBS in serum-containing medium for 1 h at 4° C. on ice. Cells were washed three times in PBS, fixed in 4% paraformaldehyde for 10 min at 4° C., and washed with PBS three times before blocking with 5% BSA in PBS for 1 h at room temperature. Cells treated with protein or FLAG peptide alone were stained using 1:200 anti-Flag M2-HRP overnight at 4° C. […]

C[C@H](Cc1ccc2c(c1)OC(C(=O)[O-])(C(=O)[O-])O2)NC[C@H](O)c1cccc(Cl)c1.[Na+].[Na+] [CL316, 243]
Slit2 gene expression in iWAT (Slit2): trend to an increase

Cl.Cl.O=S(=O)(NCCNC/C=C/c1ccc(Br)cc1)c1cccc2cnccc12 [H89, H89 dihydrochloride]
phosphorylation of PKA substrates (PKA signaling pathway [1]): significantly reduced | Dio2 mRNA in cells receiving Slit2-C (primary inguinal cells; H89 30 μM, FIG. 10D): down to baseline levels | reduction of Ucp1 mRNA in cells receiving Slit2-C (primary inguinal cells; H89 30 μM, FIG. 10D): 50%

NC[C@H](O)c1ccc(O)c(O)c1 [NE, norepinephrine]
time of treatment to full PKA phosphorylation response (PKA signaling pathway [2]): ≤ 5 min

CC(C)NCC(O)COc1cccc2ccccc12 (stereo not drawn) [Propranolol]
inhibition of Slit2-C induced thermogenesis (primary inguinal cells; propranolol 100 nM for 24 h, FIG. 10H): did not inhibit

Nc1nc(CC(=O)Nc2ccc(CCNC[C@H](O)c3ccccc3)cc2)cs1 [mirabegron]
brown fat activation (brown fat): apparent activation of brown fat | resting metabolic rate (brown fat): increased resting metabolic rate

B1: Pm20D1: another FLAG-tagged protein secreted from thermogenic adipocytes, control for specific staining (protein)
chain: STGPRSRENRGASRIPSQFSEEERVAIKEALKGAIQIPTVSFSHEESNTTALAEFGEYIRKAFPTVFHSSLVQHEVVAKYSHLFTIQGSDPSLQPYMLMAHIDVVPAPEEGWEVPPFSGLERNGFIYGRGALDNKNSVMAILHALELLLIRNYSPKRSFFIALGHDEEVSGEKGAQKISALLQARGVQLAFLVDEGSFILEGFIPNLEKPVAMISVTEKGALDLMLQVNMTPGHSSAPPKETSIGILSAAVSRLEQTPMPNMFGGGPLKKTMKLLANEFSFPINIVLRNLWLFHPIVSRIMERNPITNALVRTTTALTMFNAGIKVNVIPPLAQATINCRIHPSQTVHEVLELVKNTVADDRVQLHVLRSFEPLPISPSDDQAMGYQLLQETIRSVFPEVDIVVPGICIANTDTRHYANITNGMYRFNPLPLNPQDFSGVHGINEKVSVQNYQNQVKFIFEFIQNADTYKEPVPHLHEL
modifications: left off: small tags and cut ends
notes: another FLAG-tagged protein secreted from thermogenic adipocytes, control for specific staining
binding to the cell surface of adipocytes [3]: very limited binding
